Laboratory results taken from patent publication US4242329A, “Bradykinin-inhibiting tripeptide derivatives” (AB Kabi, priority 1978, dated 1980).
Non-standard residues stand in square brackets, D forms with d. Residues, ends and D or L forms follow the SMILES beside them.

Test system: isolated rat uterus
Experiment: Bradykinin-inhibiting activity on isolated rat uterus (contraction at ED70 of bradykinin)
Format: cell-based
Settings: for Inhibition of bradykinin effect, %: against ED70 of bradykinin, isolated rat uterus; for Duration of inhibition: time until bradykinin again gives the original contraction
Description: The bradykinin-inhibiting activity of the new tripeptide derivatives is evident from the following disclosure of the biological evaluation on isolated organs. The bradykinin-inhibiting activity is studied on isolated rat uterus. The rats are pretreated subcutanous with 0.2 mg/kg of diethyl stilbestrol, 12-15 hours prior to the experiment. The muscle from uterus which is longitudinally sectioned into halves is arranged in a smooth muscle bath with de Jalon's buffer (de Jalon et al., Farmacother.Acta, Vol. 3, p. 313, 1945), oxygenated with carbogene gas (5% carbon dioxide, 95% oxygen). The temperature is maintained at 35° C. The muscle is stretched with a tension corresponding to 0.5 g. The isometric tension is measured with Grass (FT 03C) force transmitter connected to a Grass polygraph.
Muscle contractions for bradykinin in bath concentrations of 10^-11 -10^-6 M (mole/liter) are registrated, and thereafter the concentration of bradykinin which induces 70% of maximum muscle contraction (ED70) is evaluated. The bradykinin inhibiting activity is then tested with the tripeptide derivatives in bath concentrations of 10^-8, 10^-7, 10^-6 and 10^-5 M, against the ED70 for bradykinin of resp. muscle. For each concentration the tripeptide derivatives are incubated with the uterus tissue 5 and 10 minutes resp. before the addition of bradykinin. The bradykinin-inhibiting activity is expressed as the time in minutes required until bradykinin again gives the original contraction. Each addition of bradykinin is followed by washing with the buffer.

[1] = conc. in test bath 10^-5 mole/liter
[2] = conc. in test bath 10^-6 mole/liter
[3] = conc. in test bath 10^-7 mole/liter
[4] = conc. in test bath 10^-8 mole/liter

## CCCCCCCNC(=O)[C@H](CCCNC(=N)N)NC(=O)[C@H](Cc1ccccc1)NC(=O)[C@H]1CCCN1 [Example II, H-D-Pro-Phe-Arg-NH-heptyl]
[1]
  Inhibition of bradykinin effect, %: 100%
  Duration of inhibition: 45 min
[2]
  Inhibition of bradykinin effect, %: 100%
  Duration of inhibition: 30 min
[3]
  Inhibition of bradykinin effect, %: 15%
  Duration of inhibition: 20 min
[4]
  Inhibition of bradykinin effect, %: 15%
  Duration of inhibition: 15 min

## N=C(N)NCCC[C@H](NC(=O)[C@H](Cc1ccccc1)NC(=O)[C@H]1CCCN1)C(N)=O [Example III, H-D-Pro-Phe-Arg-NH2] (H-[dP]-Phe-Arg-NH2)
[1]
  Inhibition of bradykinin effect, %: 100%
  Duration of inhibition: 50 min
[2]
  Inhibition of bradykinin effect, %: 100%
  Duration of inhibition: 30 min
[3]
  Inhibition of bradykinin effect, %: 15%
  Duration of inhibition: 15 min
[4]
  Inhibition of bradykinin effect, %: 15%
  Duration of inhibition: 15 min

## CCCCCCCOC(=O)[C@H](CCCNC(=N)N)NC(=O)[C@H](Cc1ccccc1)NC(=O)[C@H]1CCCN1 [Example I, H-D-Pro-Phe-Arg-O-heptyl]
[1]
  Inhibition of bradykinin effect, %: 100%
  Duration of inhibition: 35 min
[2]
  Inhibition of bradykinin effect, %: 100%
  Duration of inhibition: 15 min
[3]
  Inhibition of bradykinin effect, %: 10%
  Duration of inhibition: 15 min
[4]
  Inhibition of bradykinin effect, %: 10%
  Duration of inhibition: 15 min
